Publication PMC6984391, “Anion carriers as potential treatments for cystic fibrosis: transport in cystic fibrosis cells, and additivity to channel-targeting drugs” (Chemical Science, 2019)

Experiments:
WT-CFTR-YFP-FRT cells = test: Anionophore anion transport in WT-CFTR-YFP-FRT cells; assay type: cell-based, Fischer rat; details: anionophore 50 μM, CFTRinh-172 10 μM
Excerpt: Next, we sought to learn whether the activities of 11, 12, 15, and 19 are additive to that of CFTR. For these studies, we used FRT cells co-expressing wild-type human CFTR and YFP-H148Q/I152L (WT-CFTR-YFP-FRT cells).[28] […] This latter effect is difficult to explain and merits further investigation.
FRT cells stably expressing the halide sensor YFP-H148Q/I152L6 were generous gifts of AS Verkman (University of California, San Francisco), while CFBE41o- cells7 stably expressing YFP (YFP-CFBE cells) were a generous gift of LJV Galietta (Telethon Institute for Genetics and Medicine). YFP-FRT cells were cultured as described previously for FRT cells8 except that media contained 10% fetal bovine serum, 2 mM L-glutamine and the selection agent G418 (YFP-FRT cells, 0.5 mg ml-1; WT-CFTR-YFP-FRT cells, 0.75 mg ml-1) or zeocin (F508del-CFTR-YFP-FRT cells, 0.5 mg ml-1). YFP-CFBE cells were cultured in minimal essential medium (MEM) supplemented with 10% fetal bovine serum, 2 mM L-glutamine, 100 U ml-1 penicillin and 100 mg ml-1 streptomycin. […]
Fluorescence plate reader assay […]
quenching of YFP fluorescence at 37 °C using a microplate reader following the method of Galietta et al..9 The microplate reader (model: FLUORstar Omega; BMG LABTECH Ltd., Aylesbury, UK) was equipped with a syringe pump and excitation (500 ± 10 nm) and emission (535 ± 15 nm) filters (Chroma Technology GmbH, Olching, Germany). […]
the PBS bathing cells 10 minutes prior to PBS iodide addition, whereas UTP was added to cells with the PBS iodide solution. Fluorescence was measured for 14 seconds; 2 seconds before and 12 seconds after injection of 110 µl PBS iodide solution (137 mM Cl- replaced by I-) into each well (to obtain a final concentration of I- of 100 mM).
We expressed cell fluorescence values (F) relative to the fluorescence value immediately before I- injection (F0), excluding the initial decrease, which likely represents the quenching of extracellular YFP released from cells and signal reduction accompanying the increase in solution volume bathing cells. […]

YFP-FRT cells = test: IncuCyte ZOOM apoptosis (annexin V red) in YFP-FRT cells; assay type: cell-based; details: for time from which apoptosis is apparent: 30 and 50 μM, P < 0.05 vs. DMSO; for induction of apoptosis: all concentrations tested, 24 h period
Experimental: To test for the induction of apoptosis by anionophores, we also used the IncuCyte ZOOMTM (Essen Bioscience) live-cell analysis system. YFP-FRT cells were seeded and grown on 96-well plates as described above for cell viability studies. After 48 h, the YFP-FRT culture media was replaced with fresh culture media containing test anionophores or the vehicle (DMSO 0.5% v v-1) and IncuCyte annexin V red reagent (Essen Bioscience) was added following the manufacturer’s instructions before the YFP-FRT cells were transferred to the IncuCyte ZOOMTM. At 2 h intervals over a 24 h period, 4 images of each well on 96-well plates were acquired; the phase contrast images were used to determine the total number of cells per well, while the fluorescence images to identify the number of apoptotic cells labelled red by the IncuCyte annexin V red reagent. In each experiment, one data point is the average value […]
Except for ivacaftor and lumacaftor (Selleck Chemicals; Stratech Scientific Ltd., Newmarket, UK), chemicals were supplied by the Sigma-Aldrich Company Ltd. (now Merck KGaA) (Gillingham, UK). UTP was dissolved in distilled water, forskolin in methanol, while anionophores and channel modulators were prepared in DMSO. Stock solutions were stored at –20 °C except those of anionophores, which were stored at room temperature. Immediately before use, stock solutions were diluted to final concentrations. Precautions against light-sensitive reactions were observed when using anionophores and channel modulators. DMSO […]
Previous work has identified that some anionophores trigger apop totic cell death.18,19,2018,19 Using the IncuCyte ZOOMTM live-cell analysis system and the IncuCyte annexin V red reagent, we assessed whether the anionophores 11, 12, 15 and 19 induce […]
concentrations ≥ 10 µM with the effects of 30 and 50 µM apparent from as early as 2 h (P < […]
concentrations tested over the 24 h period studied (P > 0.05 vs. DMSO 0.5% v v-1) (Fig. S25). […]
the data re-affirm the promising biological activity of anionophore 11.

| Compound | effect of CFTRinh-172 on anion transport by anionophore (WT-CFTR-YFP-FRT cells) | time from which apoptosis is apparent (YFP-FRT cells) [h] | induction of apoptosis (YFP-FRT cells) |
| --- | --- | --- | --- |
| FC(F)(F)c1cc(NC(=S)NCCN(CCNC(=S)Nc2cc(C(F)(F)F)cc(C(F)(F)F)c2)CCNC(=S)Nc2cc(C(F)(F)F)cc(C(F)(F)F)c2)cc(C(F)(F)F)c1 [Compound 19] | inhibited the activity | ≥ 2 | positive effects |
| CCOC(=O)[C@]12CC[C@@H](NC(=S)Nc3cc(C(F)(F)F)cc(C(F)(F)F)c3)C[C@@H]1C[C@@H](NC(=S)Nc1cc(C(F)(F)F)cc(C(F)(F)F)c1)CC2 [Compound 15] | small, albeit significant, increase | ≥ 2 | positive effects |
| CCOC(=O)[C@]12CC[C@@H](NC(=S)Nc3ccc([N+](=O)[O-])cc3)C[C@@H]1C[C@@H](NC(=S)Nc1ccc([N+](=O)[O-])cc1)CC2 [Compound 12] | without effect | ≥ 2 | positive effects |
